The nature of the data set: in vitro. Particulars: human, hela cells, % viability.

The term viability denotes a read-out of living cells in per cent, often relative to untreated cells.

For the compound `FC(F)(F)c1cc(-c2cc(Nc3ccc4[nH]ccc4c3)ncn2)cc(C(F)(F)F)c1` [CBK090855], the viability at 28.5 h, 10 µM came to 97.9%.
`Nc1cccc(-c2cc(Nc3ccc(Cl)cc3)ncn2)c1` [CBK090886]: the viability at 28.5 h, 10 µM stood at 91.7%.
Same read-out and setting: the figure for `O=C1NCC(c2ccccc2)C1C(=O)N/N=C\c1cc(O)ccc1[N+](=O)[O-]` (stereo not shown) [CBK262772] is 91.8%.
On to `CS(=O)(=O)CCOCCNC(=O)c1cc(Br)cnc1Cl` [CBK305178], for which the viability at 28.5 h, 10 µM amounted to 86.4%.
Same read-out and setting: under `O=C(O)c1cc(NC(=O)c2ccco2)cc(C(=O)O)c1` [CBK263360] stands 102%.
Same read-out and setting: the figure for `CC(C)(CO)CNc1cncc(-c2ccccc2CO)n1` [CBK066088] is 96.3%; for `O=C(O)CCCC(=O)N1CCN2C(=O)c3cc(Br)ccc3NC(=O)[C@@H]2C1` [CBK289581] it is 100%; for `Cc1nc2cc(NC(=O)Cc3c(C)nc4ccccc4c3C)ccc2o1` [CBK297083] it is 110%.
In the case of `O=C1NC(CCSC2=NCN=N2)Oc2ccccc21` (stereo not shown) [CBK009148], the viability at 28.5 h, 10 µM was found to be 107%.
Still for that read-out and setting: under `CNC(=O)C1(Cc2ccccc2-c2cccs2)CCN(C(=O)c2ccccc2OC)CC1` [CBK285685] stands 107%; under `O=C(NCc1ccc(OC(F)(F)F)cc1)c1cnoc1-c1ccc(F)cc1` [CBK154952], 100%.
`Cc1cc(NC(=O)c2cccc(C(F)(F)F)c2)nc2c1c(=O)oc1ccccc12` [CBK291163]: the viability at 28.5 h, 10 µM came to 101%.
Same read-out and setting: under `Nc1ncc(-c2cccc(OC(F)(F)F)c2)nc1-c1ccc(CCC(=O)O)cc1` [CBK064071] stands 95.2%; under `Cn1cc(C(=O)NCc2ccccc2)c2ccccc21` [CBK200196], 72.9%.
The same measure, in the same setting: under `CC(=O)N1c2ccc(C(O)CN3CCCC(C)C3)cc2CC1C` (stereo not shown) [CBK282922] stands 96.5%.
Still for that read-out and setting: the figure for `O=C(NCc1ccco1)c1c(NC(=O)C2CCCO2)sc2c1CCC2` (stereo not shown) [CBK268180] is 94.4%; for `O=C(NCc1c(Cl)cccc1Cl)N(Cc1cccnc1)Cc1ccc2c(c1)OCO2` [CBK159450] it is 96.8%.
Regarding `COc1ccc([C@@]23CC[C@@H](NC(=O)Nc4ccc(Cl)c(C(F)(F)F)c4)C[C@@H]2N(C)CC3)cc1OC` [CBK038224C], the viability at 28.5 h, 10 µM amounted to 98.4%.
Still for that read-out and setting: the figure for `COc1ccc(CCN(CCc2ccccc2)CC(O)COc2cccc3c2CCCC3)cc1` (stereo not shown) [CBK024506T] is 82.2%; for `FC(F)(F)c1ccc(SCc2ccccc2)nc1` [CBK103715] it is 89.7%.
On the same count and under the same terms, the figure for `CC1CC1C(=O)N1C2CCC1CC(O)(Cn1ccc3ccncc31)C2` (stereo not shown) [CBK284653] is 85.6%; for `NCC1CCCN1C(=O)c1ccc(Oc2cccc(Br)c2)nc1` (stereo not shown) [CBK304200] it is 95.5%.
On the same count and under the same terms, the figure for `O=c1[nH]c(=O)c2cc(S(=O)(=O)NCC3CCN(Cc4ccccc4)C3)ccc2[nH]1` (stereo not shown) [CBK286384] is 90%; for `O=C(OCc1ccccc1)N1CCC(C(=O)N(CCc2ccccc2)Cc2ccccc2)CC1` [CBK171978] it is 92.5%; for `CC(C)CNc1nc(-c2ccc(F)cc2)cnc1N` [CBK063815] it is 105%.
For the compound `CCOc1cc(/C=C(/C#N)C(N)=S)ccc1OCC(=O)N1CCCC1` [CBK268765], the viability at 28.5 h, 10 µM stood at 91.3%.
On the same count and under the same terms, the figure for `COc1ccc(-c2noc(COc3cccc(C(=O)O)c3)n2)c(OC)c1` [CBK298279] is 101%.
The same measure, in the same setting: under `O=C(O)CCC(=O)N1c2ccccc2CC1c1ccccc1` (stereo not shown) [CBK286860] stands 91.1%; under `Nc1nc2ccccc2n1/N=C/c1ccc([N+](=O)[O-])cc1` [CBK262239], 88%.
The same measure, in the same setting: the figure for `S=C(NCCC(c1ccccc1)c1ccccc1)Nc1ccc(Cl)c(Cl)c1` [CBK263972] is 85.1%.
For `CC(=O)Nc1nnn(CCOc2nonc2C)n1` [CBK027320], the viability at 28.5 h, 10 µM is 90.2%.
Still for that read-out and setting: the figure for `C1=CC2CC1CC2CN1CCC(N(CCc2ccccc2)Cc2ccccc2)CC1` (stereo not shown) [CBK264613G] is 87.7%.
`Nc1nc(-c2ccc(Cl)cc2)c(CC(=O)O)s1` [CBK287188]: the viability at 28.5 h, 10 µM stood at 80%.
Same read-out and setting: the figure for `Cc1ccc(OCC(=O)N2CCN(C(=O)c3ccncc3)CC2)cc1` [CBK300480] is 92.3%; for `CC(C)(C)c1ccc(/C=N/NC(=O)CCSc2ccc(Cl)cc2)cc1` [CBK263696] it is 105%.
Turning to `Cc1ccc2oc(CN3CCC(O)(c4cccnc4)CC3)c(C)c2c1` [CBK282816], the viability at 28.5 h, 10 µM came out at 94.7%.
The same measure, in the same setting: under `CCOC(=O)C1=CC2C(=NC3=C2CCCC3)C=C1` (stereo not shown) [CBK009652] stands 74.6%; under `Cl/C(=C\c1ccccc1)CN1CCOCC1` [CBK261892], 114%.
Same read-out and setting: under `CN1CC[C@@]2(c3cc(F)cc(F)c3)CCC(=O)CC12` (stereo partly shown) [CBK002500] stands 110%; under `CC(=O)Nc1ccc(S(=O)(=O)Nc2ccnc(N3CCN4CCCC4C3)n2)cc1` (stereo not shown) [CBK000380C], 91.1%.
Consider `Cc1ccc(S(N)(=O)=O)cc1NC(=O)c1ccc[nH]1` [CBK050200], for which the viability at 28.5 h, 10 µM came to 91.2%.
The same measure, in the same setting: under `O=C(Cc1ccc(F)cc1)N1CCOC(Cn2ccnc2)C1` (stereo not shown) [CBK282875] stands 91%; under `Cn1cc(CN2CCN(CC3(c4ccccc4)CC3)CC2)cn1` [CBK282794], 109%.
As for `O=C1NC(=O)N(c2ccc(Br)cc2)C(=O)/C1=C/c1ccc(O)c(O)c1` [CBK278167], where the note is “bulk resorufin, single well”, the viability at 28.5 h, 10 µM is 104%.
For `CCN(CC)C(=O)c1c(NS(=O)(=O)c2ccc(C)cc2)sc2c1CCCC2` [CBK028627], the viability at 28.5 h, 10 µM is 111%.
For `COc1ccc(OCCNC(=O)C2(c3ccc(OC)cc3)CC2)cc1` [CBK149821], the viability at 28.5 h, 10 µM turned out to be 91.8%.
Still for that read-out and setting: under `COc1ccc(-n2nc(N)c3c(=O)oc(N(C)C)nc32)cc1` [CBK007445] stands 89.9%.
Still for that read-out and setting: the figure for `Cc1ccc(-n2ncc3c(=O)n(CC(=O)Nc4cccc(C)c4)cnc32)cc1` [CBK287533] is 103%.
The same measure, in the same setting: the figure for `COc1ccc(Cc2nnc(SCC(=O)Nc3ccc(Br)c(C)c3)n2C)cc1` [CBK265816] is 83.9%.
Consider `O=C(N/N=C/c1ccccc1O)c1ccn(Cc2ccc(Cl)cc2)n1` [CBK262770], for which the viability at 28.5 h, 10 µM was 91.3%.
Still for that read-out and setting: under `COc1cccc(C2=NO[C@@](CC(=O)O)(C(=O)NCc3ccccc3)C2)c1OC` [CBK286641] stands 83.4%.
Same read-out and setting: under `Fc1cc2c3c(c1)c1c(n3CCO2)CCNCC1` [CBK018018C] stands 102%.
On the same count and under the same terms, the figure for `CC(C)n1cnnc1CN(C)C(=O)CCc1nc2ccccc2s1` [CBK304638] is 97%; for `O[C@H]1[C@H](NCc2ccccn2)[C@H]2CO[C@H](O2)[C@@H]1N1CCC(Cc2ccccc2)CC1` [CBK288814] it is 87.2%.
Regarding `Cc1ccc(-c2noc(-c3cccnc3N3CCC(C(=O)O)CC3)n2)cc1` [CBK287260], the viability at 28.5 h, 10 µM turned out to be 90.3%.
Same read-out and setting: under `CC(=O)NCC(=O)N1CCC2(CC1)CC(=O)c1cc(Br)ccc1O2` [CBK156447] stands 106%; under `O=C(O)C=Cc1cn(-c2ccccc2)nc1-c1ccc(-c2ccc([N+](=O)[O-])cc2)o1` [CBK296088], 105%; under `CCN(Cc1ccccc1)C(=O)NCCCN1CCN(C)CC1` [CBK155212], 102%.
Regarding `COc1cccc(C(c2nnnn2C(C)(C)C)N2CCN(c3cccc(Cl)c3)CC2)c1` (stereo not shown) [CBK141669], the viability at 28.5 h, 10 µM came out at 112%.
On the same count and under the same terms, under `COc1ccc(C2(NCc3cn(CC(N)=O)c4ccccc34)CC2)cc1` [CBK282833] stands 107%; under `CC(C)c1cc(C(C)C)c(S(=O)(=O)n2cnc3c2c(=O)[nH]c(=O)n3C)c(C(C)C)c1` [CBK018772], 107%.
On the same count and under the same terms, under `O=C(O)COCC(=O)N1CCN(c2ccccc2Cl)CC1` [CBK268155] stands 108%; under `Cc1nc(C2CCCN(C(=O)c3ccnn3C)C2)c2sccn12` (stereo not shown) [CBK285235], 87.2%.
The same measure, in the same setting: the figure for `O=C1CSC(=O)N1CNc1ccc(Br)cc1` [CBK261819] is 90.2%.
For the compound `Cc1occc1C(=O)Nc1nc(CC(=O)N(C)Cc2ccsc2)cs1` [CBK305631], the viability at 28.5 h, 10 µM is 83.8%.
The same measure, in the same setting: the figure for `CC(=O)N1CCC(c2c(C(=O)Nc3cccc(CN4CCCC4)c3)sc3ccccc23)C1` (stereo not shown) [CBK285892] is 110%; for `Oc1ccc(/C=N/N(Cc2ccccc2)Cc2ccccc2)cc1` [CBK261414] it is 98.2%.
Regarding `CS(=O)(=O)Nc1ncc(-c2ccco2)cc1C(=O)NCCc1c[nH]c2ccccc12` [CBK076569], the viability at 28.5 h, 10 µM was determined as 90.5%.
The same measure, in the same setting: the figure for `O=C(O)CCN1C(=O)c2ccc(NC(=O)c3ccccc3Cl)cc2C1=O` [CBK268413] is 83.7%.
The same measure, in the same setting: the figure for `CCN1c2ccc(-c3cncn3CC(=O)NC(C)(C)C)cc2CC1C` (stereo not shown) [CBK281815] is 95.7%.
On the same count and under the same terms, the figure for `O=c1[nH]c2ccc(Cl)cc2c(-c2ccccc2)c1N1CCN(Cc2ccc3c(c2)OCO3)CC1` [CBK265776] is 92.3%; for `Cc1c(NC(=O)CSc2nnc(-c3ccc4ccccc4n3)s2)c(=O)n(-c2ccccc2)n1C` [CBK269341] it is 92.7%.
`O=C(O)COc1cccc(NC(=O)c2cc3ccccc3o2)c1` [CBK270071]: the viability at 28.5 h, 10 µM was 90.3%.
The same measure, in the same setting: the figure for `Nc1ncc(-c2ccc(CN3CCOCC3)cc2)nc1-c1ccc(O)cc1` [CBK123798] is 93.9%; for `CC1(C)CC(=O)c2sc(NC(=O)c3ccc(OC(F)(F)F)cc3)nc2C1` [CBK144102] it is 109%; for `Cc1cc(C)nc(SCCCn2c(=O)[nH]c3ccccc32)n1` [CBK264485] it is 112%.
Same read-out and setting: under `CCn1nc(C)c(NC(=O)c2ncoc2-c2ccc(F)cc2)c1C` [CBK282360] stands 88%; under `COc1ccc(NC(=O)Nc2nn(Cc3ccc(Cl)cc3Cl)cc2Br)cc1OC` [CBK266930], 101%.
Still for that read-out and setting: the figure for `CC(=O)OCc1ccc(CN2CCCCCC2c2cc(C)on2)o1` (stereo not shown) [CBK283004] is 88.2%.

These data come from paper PMC12040169 (PLOS Biology, 2025).
